# Results from publication PMC8929087, “Structural and Functional Characterization of a Novel Recombinant Antimicrobial Peptide from Hermetia illucens” (Current Issues in Molecular Biology, 2021).
# Where a SMILES comes first, the peptide text is derived from it. Bridges are numbered along the chain shown (N, C = ends).
# Experiments:
# [1] = system: E. coli BL21; type: cell-based, Escherichia coli; settings: BL21, 24 h
# Method: (§1) The […] antimicrobial activity of the recombinant C-15867 peptide was evaluated against three different bacterial strains: E. coli BL21, Staphylococcus aureus NCTC 12493 and Staphylococcus. epidermidis ATCC 12228. The minimum inhibitory concentration (MIC) was determined as the lowest concentration showing no visible growth after 24 h of incubation at 37 °C.
# (§2) Figure 5 Determination of C-15867 minimum inhibitory concentration (MIC). All bacteria cells were grown in the presence of serial dilution of peptide from 248 µM to 0.56 µM and incubated at 37 °C for 24 h. The error bars on the graphs stand for the standard deviation from the mean of three experiments.
# (§3) The procedure was performed using medium as negative control and cells approximately 5 × 10^5 CFU/mL as positive control to monitor the normal growth of bacteria.
# [2] = system: Staphylococcus aureus NCTC 12493; type: cell-based; settings: NCTC 12493, 24 h
# Method: as §1, §2, §3
# [3] = system: Staphylococcus epidermidis ATCC 12228; assay: Minimum inhibitory concentration (MIC) determination; type: cell-based; settings: serial dilution of peptide 248 to 0.5 μM, 24 h at 37 °C
# Method: as §1, §2, §3
# [4] = system: E. coli BL21 membrane permeability; assay: Crystal violet assay of membrane permeability; type: cell-based, Escherichia coli; settings: sub-mic concentration (9 µM) of peptide, LB broth, 37 °C, OD590 of supernatant
# Method: With C-15867 being a defensin-like AMP, we investigated the effect of the peptide, if any, on E. coli BL21 membrane permeability using the crystal violet assay. Bacterial cells were grown in the presence of a sub-mic concentration (9 µM) of the peptide and the uptake of crystal violet was monitored at different times of incubation.
# Figure 6 Effect of C-15867 on E. coli BL21 membrane permeability. The uptake of crystal violet was calculated in the presence of sub-mic concentration (9 µM) of the peptide.
# The alteration in membrane permeability was detected by crystal violet assay. Bacterial cells were grown in LB broth at 37 °C in the presence of […] peptide for 1 and 3 h. Subsequently, the cells were harvested at 9300× g for 5 min and then the cells were resuspended in 1× PBS containing 10 µg/mL of crystal violet. The cell suspension was incubated for 10 min at 37 °C and then centrifuged at 13,400× g for 15 min and the OD590 of the supernatant was measured at the spectrophotometer. Control samples were prepared similarly without treatment. The OD value of the crystal violet solution, which was originally used in the assay, was taken and it was considered as 100%. The percentage of crystal violet uptake of all the samples was quantified according to the following formula: OD value of the sample/OD value of the crystal violet solution 100×.
# [5] = system: E. coli Bl21 cells; assay: Scanning electron microscopy (SEM) of cell morphology; type: cell-based, Escherichia coli; settings: sub-mic concentration (9 µM) of peptide, 3 h incubation at 37 °C, compared with untreated cells
# Method: The effect of C-15867 on the morphology of E. coli BL21 cells was also assessed by SEM microscopy analyses. Bacterial cells were treated with a sub-mic concentration (9 µM) of the antimicrobial peptide and SEM analyses were carried out after 3 h of incubation in comparison with untreated cells.
# The cell wall and the cell surface were rough gradually forming pores with subsequent leakage of cytoplasmic material confirming the disrupting effect of the antimicrobial peptide on the bacterial membrane.
# Figure 7 Scanning electron microscopy of E. coli BL2_1 cells following 3 h treatment with a sub-mic concentration (9 µM) of the antimicrobial peptide C-15867 (d–f) in comparison with untreated cells (a–c). The scale bar was 2 µm in panel (a), 500nm in panel (b,c) and 1µm in panel (d–f).
# E. coli BL21 cells were grown in the absence and in the presence of native C15867 peptide at 37 °C for 3 h. Samples from each culture were fixed in 2.5% glutaraldehyde solution for 16 h. Following the incubation, the bacterial cells were washed with 0.1 M PBS (pH 7.2) and dehydrated in a series of ethanol solutions ranging from 30 to 100%, followed by three washes with 100% ethanol. E. coli cells were deposited onto glass substrate first sputter coated with a thin layer of Au-Pd alloy (Denton Vacuum Desk V Magnetron Sputtering) to allow subsequent morphological characterization using a FEI Nova NanoSEM 450.
smiles,measurement,setting,value
"CC[C@H](C)[C@@H]1NC(=O)[C@@H]2CSSC[C@@H](C(=O)N[C@@H](CCCNC(=N)N)C(=O)O)NC(=O)[C@H](C(C)C)NC(=O)[C@@H]3CSSC[C@H](NC(=O)[C@@H]4CCCN4C(=O)[C@H](C)NC(=O)[C@H](CCCNC(=N)N)NC(=O)CNC(=O)[C@H](Cc4ccccc4)NC(=O)[C@H](Cc4ccccc4)NC(=O)[C@@H]4CCCN4C(=O)[C@H](CCCCN)NC(=O)[C@H](CC(C)C)NC(=O)[C@H](CC(C)C)NC(=O)[C@H](CC(=O)O)NC(=O)[C@@H](NC(=O)[C@@H](NC(=O)[C@@H](N)C(C)C)[C@@H](C)O)CSSC[C@H](NC(=O)[C@H](Cc4ccccc4)NC(=O)CNC(=O)[C@H]([C@@H](C)O)NC(=O)[C@H](CCCNC(=N)N)NC(=O)[C@H](CCCCN)NC(=O)[C@H](CCCCN)NC(=O)[C@H](Cc4ccccc4)NC(=O)[C@H](CCCNC(=N)N)NC(=O)[C@H](CC(C)C)NC1=O)C(=O)N[C@@H](CO)C(=O)N[C@@H](CCCNC(=N)N)C(=O)N[C@@H](CCC(N)=O)C(=O)N[C@@H](CC(N)=O)C(=O)N[C@@H](C(C)C)C(=O)N3)C(=O)N[C@@H](CCSC)C(=O)N[C@@H](CCSC)C(=O)N[C@@H](Cc1c[nH]cn1)C(=O)N2 [C-15867] (H-VTCDLLKPFFGRAPCMMHCILRFKKRTGFCSRQNVCVCR-OH; disulfide 3-30, 15-36, 19-38; N-terminus and C-terminus assumed)",minimum inhibitory concentration (MIC),[1],36 µM
same,minimum inhibitory concentration (MIC),[2],36 µM
same,antimicrobial effect (in words),[3],strong antimicrobial effect
same,increase in the uptake of crystal violet,[4]; 1 h of treatment,22%
same,increase in the uptake of crystal violet,[4]; 3 h of treatment,34%
same,cell morphology by SEM (in words),[5],severe morphological changes
